Measurements taken from ChEMBL document CHEMBL1201862, “PubChem BioAssay data set” (2004).
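Five concentrations, 48 hours, 96-well plates. GI50: concentration for 50% inhibition of growth.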 Active and inactive are the calls of the source. Cut-off read from the data, not from the text of the source: active = GI50 up to about 1.1 µM and inactive = higher.

What was measured:
Experiment in all cases: NCI anticancer screen, dose series, 48 h
[1] = test system: K562
[2] = test system: SK-MEL-2
[3] = test system: A549
[4] = test system: Hs-578T
[5] = test system: EKVX
[6] = test system: SF-295
[7] = test system: CAKI-1
[8] = test system: HCT-116
[9] = test system: U-251
[10] = test system: SN12C
[11] = test system: SF-268
[12] = test system: LOX IMVI
[13] = test system: OVCAR-8
[14] = test system: SF-539
[15] = test system: UACC-257
[16] = test system: NCI/ADR-RES
[17] = test system: SNB-75
[18] = test system: SR
[19] = test system: UACC-62
[20] = test system: HT-29

O=C(O)CCC(=O)c1ccc2ccc3cccc4ccc1c2c34
GI50 [1]: 81.7 µM (inactive) | GI50 [2]: > 100 µM (inactive) | GI50 [3]: 62.2 µM (inactive) | GI50 [4]: > 100 µM (inactive) | GI50 [5]: 58.2 µM (inactive) | GI50 [6]: 70.6 µM (inactive) | GI50 [7]: > 100 µM (inactive) | GI50 [8]: 65.8 µM (inactive) | GI50 [9]: 48.5 µM (inactive) | GI50 [10]: 57 µM (inactive) | GI50 [11]: 61.7 µM (inactive) | GI50 [12]: 71.8 µM (inactive) | GI50 [13]: 66.7 µM (inactive) | GI50 [14]: 27.7 µM (inactive) | GI50 [15]: 33 µM (inactive) | GI50 [16]: 96.4 µM (inactive) | GI50 [17]: > 100 µM (inactive) | GI50 [18]: 45.7 µM (inactive) | GI50 [19]: > 100 µM (inactive) | GI50 [20]: 63.8 µM (inactive)

COC1=C(Cl)C(=O)c2c(O)ccc(O)c2C1=O
GI50 [1]: 0.826 µM (active) | GI50 [2]: 0.499 µM (active) | GI50 [3]: 4.01 µM (inactive) | GI50 [4]: 1.11 µM (active) | GI50 [5]: 0.902 µM (active) | GI50 [6]: 6.43 µM (inactive) | GI50 [7]: 0.541 µM (active) | GI50 [8]: 0.536 µM (active) | GI50 [9]: 3.53 µM (inactive) | GI50 [10]: 1.31 µM (inactive) | GI50 [11]: 2.43 µM (inactive) | GI50 [12]: 1.38 µM (inactive) | GI50 [13]: 2 µM (inactive) | GI50 [14]: 0.578 µM (active) | GI50 [15]: 1.77 µM (inactive) | GI50 [16]: 0.843 µM (active) | GI50 [17]: 4.88 µM (inactive) | GI50 [18]: 0.227 µM (active) | GI50 [19]: 1.07 µM (active) | GI50 [20]: 3.15 µM (inactive)

COc1ccc(OC)c(-c2cc(C(=O)O)c3cc4ccccc4cc3n2)c1
GI50 [1]: > 100 µM (inactive) | GI50 [2]: > 100 µM (inactive) | GI50 [3]: > 100 µM (inactive) | GI50 [4]: > 100 µM (inactive) | GI50 [5]: > 100 µM (inactive) | GI50 [6]: > 100 µM (inactive) | GI50 [7]: > 100 µM (inactive) | GI50 [8]: > 100 µM (inactive) | GI50 [9]: > 100 µM (inactive) | GI50 [10]: > 100 µM (inactive) | GI50 [11]: > 100 µM (inactive) | GI50 [12]: > 100 µM (inactive) | GI50 [13]: > 100 µM (inactive) | GI50 [14]: > 100 µM (inactive) | GI50 [15]: > 100 µM (inactive) | GI50 [16]: > 100 µM (inactive) | GI50 [17]: > 100 µM (inactive) | GI50 [18]: > 100 µM (inactive) | GI50 [19]: > 100 µM (inactive) | GI50 [20]: > 100 µM (inactive)

COc1ccc2oc(OC)c(CC=C(C)C)c(=O)c2c1C
GI50 [1]: > 100 µM (inactive) | GI50 [2]: > 100 µM (inactive) | GI50 [3]: > 100 µM (inactive) | GI50 [4]: > 100 µM (inactive) | GI50 [5]: > 100 µM (inactive) | GI50 [6]: > 100 µM (inactive) | GI50 [7]: > 100 µM (inactive) | GI50 [8]: > 100 µM (inactive) | GI50 [9]: > 100 µM (inactive) | GI50 [10]: > 100 µM (inactive) | GI50 [11]: > 100 µM (inactive) | GI50 [12]: > 100 µM (inactive) | GI50 [13]: > 100 µM (inactive) | GI50 [14]: > 100 µM (inactive) | GI50 [15]: > 100 µM (inactive) | GI50 [16]: > 100 µM (inactive) | GI50 [17]: > 100 µM (inactive) | GI50 [18]: > 100 µM (inactive) | GI50 [19]: > 100 µM (inactive) | GI50 [20]: > 100 µM (inactive)

C[C@]12CCC(=O)O[C@H]1CCCCO2
GI50 [1]: > 100 µM (inactive) | GI50 [2]: > 100 µM (inactive) | GI50 [3]: > 100 µM (inactive) | GI50 [4]: > 100 µM (inactive) | GI50 [5]: > 100 µM (inactive) | GI50 [6]: > 100 µM (inactive) | GI50 [7]: > 100 µM (inactive) | GI50 [8]: > 100 µM (inactive) | GI50 [9]: > 100 µM (inactive) | GI50 [10]: > 100 µM (inactive) | GI50 [11]: > 100 µM (inactive) | GI50 [12]: > 100 µM (inactive) | GI50 [13]: > 100 µM (inactive) | GI50 [14]: > 100 µM (inactive) | GI50 [15]: > 100 µM (inactive) | GI50 [16]: > 100 µM (inactive) | GI50 [17]: 87.5 µM (inactive) | GI50 [18]: > 100 µM (inactive) | GI50 [19]: > 100 µM (inactive) | GI50 [20]: > 100 µM (inactive)

O=C1CN(c2ccccc2)Cc2nc(Cl)ccc2N1
GI50 [1]: > 100 µM (inactive) | GI50 [2]: > 100 µM (inactive) | GI50 [3]: > 100 µM (inactive) | GI50 [4]: 61.9 µM (inactive) | GI50 [5]: > 100 µM (inactive) | GI50 [6]: > 100 µM (inactive) | GI50 [7]: > 100 µM (inactive) | GI50 [8]: > 100 µM (inactive) | GI50 [9]: > 100 µM (inactive) | GI50 [10]: > 100 µM (inactive) | GI50 [11]: > 100 µM (inactive) | GI50 [12]: > 100 µM (inactive) | GI50 [13]: > 100 µM (inactive) | GI50 [14]: > 100 µM (inactive) | GI50 [15]: > 100 µM (inactive) | GI50 [16]: 94 µM (inactive) | GI50 [17]: 40.4 µM (inactive) | GI50 [18]: > 100 µM (inactive) | GI50 [19]: 95.5 µM (inactive) | GI50 [20]: > 100 µM (inactive)
